Key:
Format in all cases: in vivo
[1] = system: ryegrass, Italian (Italian ryegrass, Lolium multiflorum); assay: Test A preemergence; conditions: Lolium multiflorum, pre-emergence, 240 h
In short: (§1)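 Each rating is a visual injury score from 0 to 100 given about 10 d after treatment, judged against untreated controls kept alongside in the greenhouse. In loam soil–sand blend, seeds got a preemergence directed soil spray, while postemergence plants were 2 to 10 cm tall at spraying.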

Kochia (Kochia scoparia) [2] = assay: Test A preemergence; conditions: Bassia scoparia, pre-emergence, 240 h
In short: as §1

[3] = system: ragweed (common ragweed, Ambrosia elatior); assay: Test A preemergence; conditions: Ambrosia artemisiifolia, pre-emergence, 240 h
In short: as §1

[4] = system: giant foxtail (Setaria faberii); assay: Test A preemergence; conditions: Setaria faberi, pre-emergence, 240 h
In short: as §1

[5] = system: pigweed (Amaranthus retroflexus); assay: Test A preemergence; conditions: Amaranthus retroflexus, pre-emergence, 240 h
[6] = system: barnyardgrass (Echinochloa crus-galli); assay: Test A preemergence; conditions: Echinochloa crus-galli, pre-emergence, 240 h
In short: as §1

[7] = system: ryegrass, Italian (Italian ryegrass, Lolium multiflorum); assay: Test A postemergence; conditions: Lolium multiflorum, post-emergence, 240 h, read-out: Plant response rating, Ryegrass, Italian
In short: as §1

Kochia (Kochia scoparia) [8] = assay: Test A postemergence; conditions: Bassia scoparia, post-emergence, 240 h, read-out: Plant response rating, Kochia
In short: as §1

[9] = system: ragweed (common ragweed, Ambrosia elatior); assay: Test A postemergence; conditions: Ambrosia artemisiifolia, post-emergence, 240 h, read-out: Plant response rating, Ragweed
In short: as §1

[10] = system: wheat (Triticum aestivum); assay: Test A postemergence; conditions: Triticum aestivum, post-emergence, 240 h, read-out: Plant response rating, Wheat
In short: as §1

[11] = system: giant foxtail (Setaria faberii); assay: Test A postemergence; conditions: Setaria faberi, post-emergence, 240 h, read-out: Plant response rating, Foxtail, Giant
In short: as §1

[12] = system: pigweed (Amaranthus retroflexus); assay: Test A postemergence; conditions: Amaranthus retroflexus, post-emergence, 240 h, read-out: Plant response rating, Pigweed
In short: as §1

corn (Zea mays) = assay: Test A postemergence; conditions: Zea mays, post-emergence, 240 h
In short: as §1

[13] = system: barnyardgrass (Echinochloa crus-galli); assay: Test A postemergence; conditions: Echinochloa crus-galli, post-emergence, 240 h, read-out: Plant response rating, Barnyardgrass
In short: as §1

[14] = system: Galium (catchweed bedstraw, Galium aparine); assay: Test A postemergence; conditions: Galium, post-emergence, 240 h, read-out: Plant response rating, Galium
In short: as §1

[15] = system: blackgrass (Alopecurus myosuroides); assay: Test A postemergence; conditions: Alopecurus myosuroides, post-emergence, 240 h, read-out: Plant response rating, Blackgrass
In short: as §1

rice (Oryra sativa) = assay: Test B flooded paddy test; conditions: Oryza sativa, 250 g ai/ha, Flood; 0 to 100 scale where 0 is no effect and 100 is complete control; read-out: Rice plant response rating
In short: (§2)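 Visual ratings (0 none to 100 complete control) are relative to untreated plants, taken 13–15 d after treatment in a greenhouse. Test material went straight into floodwater standing 3 cm above the soil, kept constant, on plants at the 2-leaf stage.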

[16] = system: sedge, umbrella (small-flower umbrella sedge, Cyperus difformis); assay: Test B flooded paddy test; conditions: Cyperus difformis, 250 g ai/ha, Flood; 0 to 100 scale where 0 is no effect and 100 is complete control; read-out: Sedge, Umbrella plant response rating
In short: as §2

[17] = system: barnyardgrass (Echinochloa crus-galli); assay: Test B flooded paddy test; conditions: Echinochloa crus-galli, 250 g ai/ha, Flood; 0 to 100 scale where 0 is no effect and 100 is complete control; read-out: Barnyardgrass plant response rating
In short: as §2

[18] = system: ducksalad (Heteranthera limosa); assay: Test B flooded paddy test; conditions: Heteranthera limosa, 250 g ai/ha, Flood; 0 to 100 scale where 0 is no effect and 100 is complete control; read-out: Ducksalad plant response rating
In short: as §2

[19] = 125 g ai/ha, Postemergence, visual injury after approximately 10 d, 0 to 100 scale where 0 is no effect and 100 is complete control
[20] = 500 g ai/ha, postemergence, visual injury, 0 to 100 scale (0 no effect, 100 complete control), approx. 10 d

CSc1ccccc1NC(=O)[C@H]1C(=O)N(C)CC[C@@H]1c1ccc(OC(F)(F)F)cc1 [Compound 1001]
0%: pest or weed control at 125 g/ha ([1]; 125 g ai/ha, Preemergence, visual injury rating after approximately 10 d, read-out: Ryegrass, Italian plant response rating (0 to 100 scale, 0 is no effect, 100 is complete control)) | pest or weed control at 500 g/ha ([1]; 500 g ai/ha, preemergence, visual injury rating about 10 d after treatment, 0 to 100 scale (0 no effect, 100 complete control), read-out: Ryegrass, Italian plant response rating) | pest or weed control at 125 g/ha (Kochia (Kochia scoparia) [2]; 125 g ai/ha, Preemergence, visual injury rating after approximately 10 d, read-out: Kochia plant response rating (0 to 100 scale, 0 is no effect, 100 is complete control)) | pest or weed control at 500 g/ha (Kochia (Kochia scoparia) [2]; 500 g ai/ha, preemergence, visual injury rating about 10 d after treatment, 0 to 100 scale (0 no effect, 100 complete control), read-out: Kochia plant response rating) | pest or weed control at 125 g/ha ([3]; 125 g ai/ha, Preemergence, visual injury rating after approximately 10 d, read-out: Ragweed plant response rating (0 to 100 scale, 0 is no effect, 100 is complete control)) | pest or weed control at 500 g/ha ([3]; 500 g ai/ha, preemergence, visual injury rating about 10 d after treatment, 0 to 100 scale (0 no effect, 100 complete control), read-out: Ragweed plant response rating) | pest or weed control at 125 g/ha ([4]; 125 g ai/ha, Preemergence, visual injury rating after approximately 10 d, read-out: Foxtail, Giant plant response rating (0 to 100 scale, 0 is no effect, 100 is complete control)) | pest or weed control at 500 g/ha ([4]; 500 g ai/ha, preemergence, visual injury rating about 10 d after treatment, 0 to 100 scale (0 no effect, 100 complete control), read-out: Foxtail, Giant plant response rating) | pest or weed control at 125 g/ha ([5]; 125 g ai/ha, Preemergence, visual injury rating after approximately 10 d, read-out: Pigweed plant response rating (0 to 100 scale, 0 is no effect, 100 is complete control)) | pest or weed control at 500 g/ha ([5]; 500 g ai/ha, preemergence, visual injury rating about 10 d after treatment, 0 to 100 scale (0 no effect, 100 complete control), read-out: Pigweed plant response rating) | pest or weed control at 125 g/ha ([6]; 125 g ai/ha, Preemergence, visual injury rating after approximately 10 d, read-out: Barnyardgrass plant response rating (0 to 100 scale, 0 is no effect, 100 is complete control)) | pest or weed control at 500 g/ha ([6]; 500 g ai/ha, preemergence, visual injury rating about 10 d after treatment, 0 to 100 scale (0 no effect, 100 complete control), read-out: Barnyardgrass plant response rating) | pest or weed control at 125 g/ha [7, 19] | pest or weed control at 500 g/ha [7, 20] | pest or weed control at 125 g/ha (Kochia (Kochia scoparia) [8]; [19]) | pest or weed control at 500 g/ha (Kochia (Kochia scoparia) [8]; [20]) | pest or weed control at 125 g/ha [9, 19] | pest or weed control at 500 g/ha [9, 20] | plant injury at 125 g/ha [10, 19] | plant injury at 500 g/ha [10, 20] | pest or weed control at 125 g/ha [11, 19] | pest or weed control at 500 g/ha [11, 20] | pest or weed control at 125 g/ha [12, 19] | pest or weed control at 500 g/ha [12, 20] | Corn plant response rating (crop injury, 0 = no effect, 100 = complete kill) at 125 g/ha (corn (Zea mays); [19]) | Corn plant response rating (crop injury, 0 = no effect, 100 = complete kill) at 500 g/ha (corn (Zea mays); [20]) | pest or weed control at 125 g/ha [13, 19] | pest or weed control at 500 g/ha [13, 20] | pest or weed control at 125 g/ha [14, 19] | pest or weed control at 500 g/ha [14, 20] | pest or weed control at 125 g/ha [15, 19] | pest or weed control at 500 g/ha [15, 20] | pest or weed control at 250 g/ha (rice (Oryra sativa)) | pest or weed control at 250 g/ha [16] | pest or weed control at 250 g/ha [17] | pest or weed control at 250 g/ha [18]

Source: patent US12077503B2, “Substituted cyclic amides and their use as herbicides” (FMC CORPORATION, priority 2015, dated 2024)
